One assay concerns IDO1. The conditions noted are these: Figure 1, published IDO1 inhibitors, cited from earlier work.
In a further assay the target is T1, IDO1 in HeLa cells (Homo sapiens, UniProt P14902).
T1 construct: endogenous in cells; host or cells: HeLa (ATCC CCL-2), stimulated with recombinant human IFN-γ
Kind of assay: HeLa cellular IDO1 assay (kynurenine OD 480 nm after IFN-γ). Format: cell-based. The conditions noted are these: IDO1 inhibition in HeLa cells, 48 h. On the procedure: We chose HeLa cell line (ATCC, Cat. No. CCL-2, 4965442) to detect whether our compounds could inhibit IDO activity at cellular level by optical density (OD) assay. The assay was performed in 96-well flat bottom plate (CORNING, Cat. No. 3903) seeded with 5,000 cells in a final volume of 100 μL. Each well 80 μL HeLa cells were incubated overnight at 37°C in EMEM (Invitrogen, Cat. No. 11095098) supplemented with 10% FBS (Invitrogen, Cat. No. 10099-141, Lot. No. 8153379). Then compounds that have been serial diluted were added in corresponding well and 10 μL Recombinant Human IFN-γF (Peprotech, Cat. No. 300-02) was added in each well except wells for Min (Medium containing 0.5% DMSO with cells). The mixture of cells were incubated at 37°C, 5% CO2 for 48 h. Then transferred 90 μL of supernatant to 96-well plate (CORNING, Cat. No. 3599) and store at −20°C fridge for colormetric analysis. The next day, 10 μL of 6.1 N trichloroacetic acid (Sigma, Cat. No. T0699) were added in each well after transferred 80 μL supernatant to 96-well plate (CORNING, Cat. No. 3894). Then the mixture was incubated at 50°C for 30 min. Sediments were removed by centrifuged for 10 min at 2,500 rpm. Seventy microliters of 70 μL of 2% (w/v) p-dimethylaminobenzaldehyde (Sigma-Aldrich, Cat. No. 15647-7) was added after 70 μL of the supernatant were transferred to assay plate (CORNING, Cat. No. 3635). Finally, OD-value was measured at 480 nm using an EnSpire (PE).

For a further assay, the target named is T2, human IDO1 protein (Homo sapiens, UniProt P14902).
T2 construct: purchased ChemPartner Lot; No. 20160706
T2 sequence (P14902 whole entry): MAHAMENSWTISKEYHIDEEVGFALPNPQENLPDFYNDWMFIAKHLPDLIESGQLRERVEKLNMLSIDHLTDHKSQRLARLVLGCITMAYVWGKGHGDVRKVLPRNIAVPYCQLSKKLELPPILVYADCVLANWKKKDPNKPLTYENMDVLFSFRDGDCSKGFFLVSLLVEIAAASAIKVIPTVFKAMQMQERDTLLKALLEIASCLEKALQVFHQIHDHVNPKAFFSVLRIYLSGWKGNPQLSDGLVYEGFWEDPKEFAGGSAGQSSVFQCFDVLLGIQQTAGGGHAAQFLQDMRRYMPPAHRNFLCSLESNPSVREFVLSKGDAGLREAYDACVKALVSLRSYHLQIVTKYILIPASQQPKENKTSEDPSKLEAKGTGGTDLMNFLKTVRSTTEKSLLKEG
Kind of assay: Enzymatic IDO1 assay (Absorbance 321 assay). In kind it is biochemical. The settings on record: for inhibition at 20 µM: 20 μM compound, read-out: Inhibition ratio (%) @ 20 μM; for IC50: IDO1 enzymatic level. The procedure:
The standard assay mixture contained modified potassium phosphate buffer at pH 6.5, 100 μM L-tryptophan (Sigma, Cat. […] No. […]). […] Then the assay plate was read at OD321 kinetically in Spectramax. […] Fit the data in […]5.0 software to obtain IC50-values using Equation (2): (2) Y=Bottom+Top-Bottom/1+10^(logIC50-X)×HillSlope where Y stands for inhibition percentage and X stands for compound concentration. All determinations were carried out in duplicate.

Like-named read-outs stand apart in the source and are kept apart here.

T1 sequence (P14902 whole entry): as above

Regarding `Cc1ccc(-c2csc3nnc(SCC(=O)Nc4ccc5c(c4)OCO5)n23)cc1` [Amg-1], the concentration for half-maximal inhibition (IC50) in the assay on IDO1 (ref Meininger et al., 2011) is 36 µM.

At IDO1 in HeLa cells, `Clc1ccc(N2COc3ccc4ccccc4c3C2)cc1` [DC-I028] displayed an IC50 of 89.1 µM. For the same molecule, on human IDO1 protein, the inhibition at 20 µM was 58% and the IC50 worked out at 21.6 µM. Moreover, the “Inhibition ratio (%) @ 50 μM” value at human IDO1 protein (50 μM compound) was determined as 82%. The “Avg_Inh (%) @ 50uM” value on human IDO1 protein (50 uM, average inhibition, Table S2) worked out at 82.33%. Also, the “Background (%)” value at human IDO1 protein (background signal of the compound in the absorbance assay) worked out at 55.25%.

`Cc1ccc(Cl)cc1N1COc2ccc3ccccc3c2C1` [DC-I02802] gave an IC50 at IDO1 in HeLa cells of 56 µM. Moreover, on human IDO1 protein, the inhibition at 20 µM came to 42.2% and the midpoint of inhibition, the IC50, lay at 44.2 µM.

For `Cc1ccc([N+](=O)[O-])cc1N1COc2ccc3ccccc3c2C1` [DC-I02804], the IC50 on IDO1 in HeLa cells is 98.4 µM; at human IDO1 protein, 27.8 µM. The inhibition at 20 µM at human IDO1 protein was 39.1%.

Take `COc1ccc(C(=O)NC(=S)Nc2c(O)ccc3ccccc23)cc1Br` [DC-I02805]: the “Hela / Cellular IC50” value at IDO1 in HeLa cells is listed as “No activity”. At human IDO1 protein, the inhibition at 20 µM was found to be 54.7% and 13.7 µM corresponded to half-maximal inhibition (IC50).

As for `CCOc1cc(C(=O)NC(=S)Nc2c(O)ccc3ccccc23)cc(OCC)c1OCC` [DC-I02806], it took 18.2 µM to reach half-maximal inhibition against IDO1 in HeLa cells (IC50). At human IDO1 protein, the inhibition at 20 µM is 75.3% and half-maximal inhibition (IC50) was put at 18.7 µM.

As for `O=C(NC(=S)Nc1c(O)ccc2ccccc12)c1ccccc1Br` [DC-I02808], the results for the IC50 at IDO1 in HeLa cells and against human IDO1 protein were 46.4 µM and 17.9 µM, respectively. The inhibition at 20 µM on human IDO1 protein was determined as 61.3%.

On to `NS(=O)(=O)NCCNc1nonc1C(=NO)Nc1ccc(F)c(Br)c1` [INCB024360], for which the half-maximal inhibitory concentration (IC50) in the assay on IDO1 (ref Yue et al., 2009) is […].

Source of the values: publication PMC5884943, “Discovery of Novel Inhibitors of Indoleamine 2,3-Dioxygenase 1 Through Structure-Based Virtual Screening” (Frontiers in Pharmacology, 2018).
